# Columns and labels:
# [1] = target: T1, Cysteinyl leukotriene receptor (Homo sapiens, UniProt Q9Y271+Q9NS75); assay: Binding affinity against Cysteinyl leukotriene D4 receptor; assay type: protein assay
# T1 sequence (Q9Y271 whole entry): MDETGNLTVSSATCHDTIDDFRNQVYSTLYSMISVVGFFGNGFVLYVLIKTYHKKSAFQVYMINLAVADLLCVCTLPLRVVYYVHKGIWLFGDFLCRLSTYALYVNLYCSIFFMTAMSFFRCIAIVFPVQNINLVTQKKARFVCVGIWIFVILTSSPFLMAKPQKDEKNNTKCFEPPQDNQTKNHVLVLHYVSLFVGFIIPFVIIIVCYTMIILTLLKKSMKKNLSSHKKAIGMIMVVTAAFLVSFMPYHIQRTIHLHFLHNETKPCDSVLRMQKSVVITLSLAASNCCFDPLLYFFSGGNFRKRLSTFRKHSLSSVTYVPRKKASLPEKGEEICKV
# T1 sequence (Q9NS75 whole entry): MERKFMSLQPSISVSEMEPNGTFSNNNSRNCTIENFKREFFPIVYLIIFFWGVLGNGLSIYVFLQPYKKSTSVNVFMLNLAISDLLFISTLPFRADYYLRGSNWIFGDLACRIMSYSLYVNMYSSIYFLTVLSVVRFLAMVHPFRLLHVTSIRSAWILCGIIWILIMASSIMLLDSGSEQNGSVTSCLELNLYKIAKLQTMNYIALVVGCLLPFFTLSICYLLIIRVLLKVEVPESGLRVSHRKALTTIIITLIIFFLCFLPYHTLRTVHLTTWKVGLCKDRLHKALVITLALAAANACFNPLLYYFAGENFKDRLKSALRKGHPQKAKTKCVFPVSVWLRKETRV
# [2] = species on record: Homo sapiens; assay: Compound was tested for fold shift in LTD4 dose response curve 2 hour following 100 microg aerosol dose in normal subjects.; assay type: functional
# [3] = species on record: Homo sapiens; assay: Compound was tested for fold shift in LTD4 dose response curve following 800 microg aerosol dose in mild asthmatics.; assay type: functional
# [4] = species on record: Homo sapiens; assay: Compound was tested in vitro inhibitory activity against […] induced chemotaxis of human neutrophil; assay type: functional
# [5] = species on record: Homo sapiens; assay: Compound was tested in vitro inhibitory activity against […] induced Ca mobilization.; assay type: functional, organism-based
# [6] = test system: Cavia porcellus; assay: Compound was tested in vivo inhibitory activity against LTB4 induced neutrophil cutaneous influx in guinea pig; assay type: functional
# [7] = species on record: Homo sapiens; assay: Compound was tested in vitro inhibitory activity against human neutrophil CD11b/CD18.; assay type: functional
# [8] = test system: Mus musculus; assay: Compound was tested in vivo inhibitory activity against LTB4 induced neutrophil cutaneous influx in mouse.; assay type: functional
# [9] = test system: Homo sapiens; assay: Shift in LTB-4 dose response curve for CD11b upregulation in normal volunteers; assay type: functional
# [10] = test system: Cavia porcellus; assay: Compound was tested in vivo inhibitory activity to block 12 (R)-HETE skin inflammation (peroral administration) at 3 mg/kg; assay type: functional; details: route oral
# [11] = species on record: Homo sapiens; assay: Compound was tested in vitro for inhibitory activity against human neutrophil chemotaxis.; assay type: functional
# [12] = species on record: Homo sapiens; assay: Compound was tested in vitro for inhibitory activity against human neutrophil aggregation.; assay type: functional
# [13] = test system: Oryctolagus cuniculus; assay: Compound was tested in vivo inhibitory activity against LTB4 induced neutropenia in rabbit (intravenous); assay type: functional
# [14] = species on record: Cavia porcellus; assay: Compound was tested in vitro for inhibitory activity against guinea pig neutrophil aggregation; assay type: functional
# [15] = Compound was tested for in vivo inhibition against antigen bronchospasm.; assay type: functional; details: Rattus norvegicus, Bronchiole
# [16] = test system: RBL-1; assay: Compound were tested for in vitro inhibition against broken RBL-1.; assay type: functional; details: Rattus norvegicus
# [17] = phase 1 oral half life
# [18] = Compound was determined in vivo in squirrel monkey antigen bronchospasm; details: Saimiri sciureus, Bronchiole
# [19] = species on record: Rattus norvegicus; assay: Compound was tested for in vitro inhibition using FLAP binding assay
# [20] = species on record: Homo sapiens; assay: Compound were tested for in vitro inhibition against human whole blood.
# [21] = target: T2, Leukotriene B4 receptor 1 (Homo sapiens, UniProt Q15722); assay: Compound was tested for inhibitory activity against human neutrophil LTB4 receptor binding
# [22] = species on record: Homo sapiens; assay: Compound was tested in vitro inhibitory activity against LTB4 induced Ca mobilization; assay type: functional
# [23] = test system: Cavia porcellus; assay: Compound was tested in vivo inhibitory activity against LTB4 induced bronchoconstriction (orally); assay type: functional; details: po
# [24] = test system: Cavia porcellus; assay: Compound was tested in vivo inhibitory activity against LTB4 induced bronchoconstriction (intravenous); assay type: functional
# [25] = test system: Homo sapiens; assay: Compound was tested for fold shift in LTD4 bronchoconstriction dose response curve following a 400 mg oral dose.; assay type: functional, Lung
# [26] = test system: Mus musculus; assay: Compound was tested in vivo inhibitory activity against AA induced ear edema(orally); assay type: functional; details: po
# [27] = test system: Mus musculus; assay: Compound was tested in vivo inhibitory activity against PMA induced ear edema; assay type: functional
# [28] = target: T2, Leukotriene B4 receptor 1; assay: Compound was tested for binding affinity against human neutrophil LTB4 (leukotriene) receptor
# [29] = test system: Mus musculus; assay: Compound was tested in vivo inhibitory activity against AA induced ear edema (topically); assay type: functional
# [30] = species on record: Homo sapiens; assay: Compound was tested in vitro inhibitory activity against 12-R-HETE induced Ca mobilization; assay type: functional
# [31] = species on record: Homo sapiens; assay: Compound was tested in vitro for inhibitory activity in LTB4 induced Ca mobilization.; assay type: functional, organism-based
# [32] = species on record: Homo sapiens; assay: Compound was tested in vitro inhibitory activity against LTB4 induced neutrophil degranulation; assay type: functional
# [33] = species on record: Homo sapiens; assay: Fold shift in LTD4 dose response curve 3-5 hr after 5 days 450 mg bid; assay type: functional
# [34] = test system: Homo sapiens; assay: Fold shift in LTD4 dose response curve 24 hr following 450 mg oral dose; assay type: functional
# [35] = species on record: Homo sapiens; assay: Fold shift in LTD4 dose response curve […] after 5 days of 450 mg bid; assay type: functional
# [36] = species on record: Homo sapiens; assay: Compound was tested in vitro inhibitory activity against […] induced CD11 up-regulation.; assay type: functional, organism-based
# [37] = test system: Homo sapiens; assay: Compound was tested in vivo inhibitory activity against CD11b up-regulation at 4 hours in normal volunteers.; assay type: functional
# [38] = species on record: Homo sapiens; assay: Compound was tested in vitro inhibitory activity against […] induced chemotaxis; assay type: functional, organism-based
# [39] = target: T2, Leukotriene B4 receptor 1; assay: Compound was tested for inhibitory activity against Leukotriene B4 receptor binding
# [40] = test system: Mus musculus; assay: Compound was tested in vivo inhibitory activity against AA induced ear edema and MPO release.; assay type: functional
# [41] = species on record: Homo sapiens; assay: Compound was tested in vitro inhibitory activity against […] induced aggregation.; assay type: functional, organism-based
# [42] = test system: Rattus norvegicus; assay: Compound was tested in vivo inhibitory activity against rat neutropenia at 18 h.; assay type: functional
# [43] = test system: Mus musculus; assay: Compound was tested in vivo inhibitory activity against AA induced ear edema and MPO release (orally).; assay type: functional; details: po
# [44] = test system: Rattus norvegicus; assay: Compound was tested in vivo inhibitory activity against rat neutropenia at 4h.; assay type: functional
# [45] = test system: Mus musculus; assay: Compound was tested for in vivo inhibition against mouse AA ear edema; assay type: functional
# [46] = test system: Rattus norvegicus; assay: Compound was tested for in vivo inhibition against rat zymosan-inflamed air pouch; assay type: functional
# [47] = species on record: Mus musculus; assay: Compound was tested for in vitro inhibition against murine macrophage; assay type: functional
# [48] = species on record: Homo sapiens; assay: Compound was tested for in vitro inhibition against human whole blood; assay type: functional
# [49] = test system: Cavia porcellus; assay: Compound was tested for in vivo inhibition against gp antigen bronchospasm; assay type: functional; details: Bronchiole
# [50] = phase 1 oral half life at a dose 200 mg. (200 mg provided >95% inhibition of ex vivo stimulated LTB4 in blood up to 18 hour post dose); assay type: organism-based; details: human
# [51] = test system: Cavia porcellus; assay: Compound was tested for in vivo inhibition against gp antigen bronchospasm.; assay type: functional; details: Bronchiole
# [52] = species on record: Homo sapiens; assay: Compound was tested for in vitro inhibition against human whole blood.; assay type: functional
# [53] = test system: Rattus norvegicus; assay: Compound was tested for in vivo inhibition against rat peritoneal anaphylaxis.; assay type: functional
# [54] = test system: RBL-1; assay: Compound was tested for in vitro inhibition against broken RBL-1.; assay type: functional; details: Rattus norvegicus
# [55] = species on record: Homo sapiens; assay: Compound was tested for in vitro inhibition against human PMNL.; assay type: functional
# [56] = test system: Cavia porcellus; assay: Compound was tested in vivo inhibitory activity against LTB4 induced bronchoconstriction in guinea pig(orally) (20 hr pretreatment); assay type: functional; details: po
# [57] = test system: Cavia porcellus; assay: Compound was tested in vivo for LTB4 induced bronchoconstriction in guinea pig (2 hr pretreatment).; assay type: functional
# T2 sequence (Q15722 whole entry): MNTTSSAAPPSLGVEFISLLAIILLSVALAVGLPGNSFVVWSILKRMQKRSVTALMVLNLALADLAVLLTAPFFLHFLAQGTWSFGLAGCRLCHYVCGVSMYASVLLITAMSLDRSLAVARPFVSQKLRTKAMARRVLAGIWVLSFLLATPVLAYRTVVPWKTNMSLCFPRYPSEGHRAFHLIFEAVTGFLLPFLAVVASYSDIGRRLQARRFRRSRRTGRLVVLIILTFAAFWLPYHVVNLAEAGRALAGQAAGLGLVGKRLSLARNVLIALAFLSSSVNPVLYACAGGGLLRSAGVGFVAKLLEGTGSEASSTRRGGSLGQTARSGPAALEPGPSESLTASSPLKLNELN
smiles,measurement,setting,value
O=C(O)CCS[C@H](c1ccccc1CCCCCCCCc1ccccc1)[C@@H](O)C(=O)O [POBILUKAST],Ki,[1],5 nM
same,Activity,[2],10
same,Activity,[3],3
O=C(O)C1(c2ccc3c(c2)OC[C@H](Cc2ccc(-c4ccccc4)cc2)[C@H]3O)CCCC1,IC50,[4],5 nM
same,IC50,[5],940 nM
same,ED50,[6],0.3 mg/kg
same,Kb,[7]; read-out: pA2 (converted),10 nM
same,ED50,[8],4.2 mg/kg
same,Activity,[9],10
same,inhibition in vivo at 3 mg/kg,[10],75%
COc1ccc(/C=C/CCCCOc2ccc(C(=O)c3cccc(C(=O)O)c3)cc2CCC(=O)O)cc1,IC50,[11],6 nM
same,IC50,[12],100 nM
same,ED50,[13],3 mg/kg
same,IC50,[14],74 nM
CC(C)(C)Sc1c(CC(C)(C)C(=O)[O-])n(Cc2ccc(Cl)cc2)c2ccc(OCc3ccc4ccccc4n3)cc12.[Na+] [QUIFLAPON SODIUM],ED50,[15],0.16 mg/kg
same,IC50,[16],6 nM
same,T1/2,[17],6 h
same,ED50,[18],0.3 mg/kg
same,IC50,[19],1.6 nM
same,IC50,[20],510 nM
CCCc1c(OCCCOc2cc(O)c(-c3ccc(F)cc3)cc2CC)cccc1Oc1ccccc1C(=O)O [ETALOCIB],Ki,[21],25 nM
same,IC50,[22],20 nM
same,IC50,[7],3.9 nM
same,ED50,[23],0.4 mg/kg
same,ED50,[24],0.04 mg/kg
CCCc1c(OCCCCc2nnn[nH]2)ccc(C(C)=O)c1O [TOMELUKAST],Activity,[25],4.6
O=C(O)/C=C/c1nc(CSc2c(Cl)cccc2Cl)ccc1OCCc1ccccc1 [TICOLUBANT],ED50,[26],19 mg/kg
same,ED50,[27],114 µg
same,Ki,[28],0.8 nM
same,ED50,[29],20 µg
same,IC50,[30],1.3 nM
same,IC50,[31],6.6 nM
same,IC50,[32],117 nM
O=C(Nc1cccc2c(=O)cc(-c3nnn[nH]3)oc12)c1ccc(OCCCCc2ccccc2)cc1,Activity,[33],28
same,Activity,[34],7
same,Activity,[35],26
COc1cc(C(=O)N(C(C)C)C(C)C)ccc1OCCCCCOc1ccc(C(=N)N)cc1 [MOXILUBANT],IC50,[36],0.3 nM
same,IC50,[5],2 nM
same,ED100,[37],300 mg
same,IC50,[38],2.4 nM
same,IC50,[39],4 nM
same,ED50,[40],1.4 mg/kg
same,IC50,[41],0.1 nM
same,ED50,[42],11 mg/kg
same,ED50,[43],1.8 mg/kg
same,ED50,[44],4 mg/kg
COC1(c2cc(F)cc(OCc3ccc4c(ccc(=O)n4C)c3)c2)CCOCC1 [ZD-2138],ED50,[45],1.8 mg/kg
same,ED50,[46],0.3 mg/kg
same,IC50,[47],3 nM
same,IC50,[48],20 nM
same,ED50,[49],0.1 mg/kg
C[C@H](C#Cc1ccc(Cc2ccc(F)cc2)s1)N(O)C(N)=O [ATRELEUTON],half-life,[50],15 h
same,ED50,[51],4 mg/kg
same,IC50,[52],150 nM
same,ED50,[53],0.6 mg/kg
same,IC50,[54],23 nM
same,IC50,[55],23 nM
CCCc1c(OCCCCCCc2cccc(OCCCCCC(=O)O)c2CCC(=O)O)ccc2c1OCCC2=O,ED50,[56],< 1 mg/kg
same,ED50,[57],< 0.1 mg/kg

# From ChEMBL document CHEMBL1129361, “Modulators of leukotriene biosynthesis and receptor activation” (J Med Chem, 1996)
